Key:
[1] = system: BCBL-1-pLenti-GLuc cells; assay: Matador assay, drug induced cytotoxicity, BCBL-1; settings: 96 hours, different doses
Experimental: (§2) The cell pellets were lysed in 1× Renilla Luciferase Assay Lysis Buffer by diluting one volume of 5× Renilla Luciferase Assay Lysis Buffer (Promega, Cat #E2820) into four volumes of distilled water. GLuc activity was measured in the cellular supernatants and cell lysates fractions separately in triplicate by addition of 0.25× coelentrazine assay buffer (15 μl of assay buffer added to 15 μl of sample in a 384 well plate) to each fraction. For each sample, the average GLuc activity in the cellular supernatant was divided by the average GLuc activity in the cell lysates to normalize for difference in the number of GLuc expressing cells.

[2] = system: BC-3-pLenti-GLuc cells; assay: Matador assay, drug induced cytotoxicity, BC-3; assay type: cell-based; settings: 96 hours, different doses
Experimental: as §2

[3] = system: CAR CD8SP2-CD19MM-(vL-vH)-Myc-BBz-T2A-PAC T cell induced death of RAJI cells stably expressing GLuc; assay: Matador assay, drug modulation of CAR-T cell induced lysis of RAJI-GLuc cells; assay type: cell-based, Human; settings: E:T 5:1, 4 hours co-culture; Dasatinib 50 nM and 100 nM
Experimental: Human peripheral blood T cells isolated using CD3 magnetic beads were infected with lentiviruses expressing the CAR construct CD8SP2-CD19MM-(vL-vH)-Myc-BBz-T2A-PAC [SEQ ID NO: 82] targeting CD19 and selected with puromycin. CAR-T cells were pre-incubated with the indicated concentrations of Dasatinib and Imatinib for approximately 30 min at 37° C. The drug-treated and untreated T cells were plated in a white 384-well plate. […] Dasatinib (Das) and Imatinib (Imat) were added to the wells to maintain the final concentrations as indicated. […] Therefore, the assay can be used to screen for and identify candidate compounds that modulate the activity of cytotoxic cells, such as cytotoxic T cells, NK cells, CAR-T cells and T cells expressing engineered TCRs.

[4] = system: Jurkat-GLuc cells; assay: Matador assay, antibody drug conjugate induced cell death, Jurkat; assay type: cell-based; settings: 5 days of drug treatment
Experimental: (§1) We next used the Matador cytotoxicity assay to measure cell death induced by CD30-directed antibody-drug-conjugate (ADC), Brentuximab vedotin (Adcetris). […] Similarly, Jurkat cells were transduced with MSCVhygro-GLuc-HA-G02 (SEQ ID NO: 95) retroviral vector and selected with hygromycin to generate Jurkat-GLuc stable cell line. These GLuc-expressing target cells were plated at a concentration of 10×10^5 cells/well in a flat-bottom 24 well plate in 500 μl of phenol-red-free RPMI medium with 10% FBS and treated with the indicated dose of Brentuximab vedotin. After 5 days of drug treatment, the cells were mixed well, collected in 1.5 ml microfuge tubes and divided into 3 groups of 166 μl each. For the first group, the cells with cell supernatant were directly assayed for luciferase activity by plating 30 μl of cells/well in a white 384 well plate in triplicate. For the second group, 166 μl of cells were centrifuged and only cell supernatants were collected in a new tube and plated at 30 μl/well in triplicate in a white 384 well plate. […] The luciferase activity was precisely measured by BioTek synergy plate reader by injecting 0.5× CTZ assay buffer containing native coeloentrazine into each well of the 384 well plate in a well mode. […]

[5] = system: L428-GLuc cells; assay: Matador assay, antibody drug conjugate induced cell death, L428; assay type: cell-based; settings: 5 days of drug treatment
Experimental: as §1

[6] = system: KMH2-GLuc cells; assay: Matador assay, antibody drug conjugate induced cell death, KMH2; assay type: cell-based; settings: 5 days of drug treatment
Experimental: as §1

[7] = system: RAJI cells expressing GLuc; assay: Antibody-dependent cellular cytotoxicity (ADCC) Matador assay; assay type: cell-based
Experimental: Antibody-dependent cellular cytotoxicity (ADCC) assay was performed performed essentially as described earlier (Teeling, French et al. 2004). To determine the cytotoxicity of Rituximab monoclonal antibody, the cell death was assessed using Matador assay. Peripheral Blood Mononuclear Cells (PBMC) were isolated by Ficoll-Hypaque gradient centrifugation from buffy coat cells obtained from a de-identified healthy donor as a source of natural effector. […] The cells were either left untreated, or treated with 1 μg/ml or 10 μg/ml of Rituximab. The plates were incubated at 37° C. for 4 hours in a CO2 incubator. After incubation for 4 hours, the cell death was assessed by luciferase assay by addition of CTZ assay buffer containing native coelentrazine to the wells as described earlier.

[8] = cited from earlier work
[9] = Stability of luciferases in cell culture supernatants at 37° C. under Matador assay conditions; assay type: physicochemical; settings: for time for which luminescence was stable: cell culture supernatants of K562 cells co-cultured with NK92MI
Experimental: Post-incubation, the cell-free supernatants were divided into 7 different tubes and frozen immediately at −80° C. The tubes were then incubated at 37° C. for 0, 0.5, 1, 2, 4, 6, and 24 hours.
Although thermostable luciferases are stable at 37° C., it was not obvious whether thermostability is the only criteria for stability of a reporter under the conditions used in the cytotoxicity assays. Thus, a thermostable luciferase could be degraded under the culture conditions of the cytotoxicity assay due to the activity of proteases that are present in the serum or are released during the process of cell death. Therefore, to examine whether thermostable luciferases are suitable for inclusion in the Matador cytotoxicity assay, K562 cells stably expressing LucPPe-146-1H2 mutant were plated in a 6-well plate, treated with media alone (control) or co-cultured with NK92MI at Effector:Target (E:T) ratio of 1:1 for 4 hours. After incubation, cell-free supernatants were transferred into 7 different tubes and frozen immediately at −80° C. The tubes were directly transferred to 37° C. (from −80° C.) and were incubated for indicated time periods (0 to 24 hours). The luminescence was measured by adding D-luciferin containing assay buffer directly to each well in well mode. […] Furthermore, the luminescence signal was stable in the cell culture medium for nearly 4-6 hours.

[10] = Stability of luciferase activity in supernatants after freezing and thawing; assay type: physicochemical; settings: supernatants frozen, thawed two weeks later
From the text: Two weeks later, the supernatants were thawed and then re-assayed after addition of coeloentrazine.

Question: For `COc1c(C)cnc(Cn2cnc3c(Cl)nc(N)nc32)c1C` [BIIB021], which “GLuc activity in the supernatant normalized to cell lysates” value [1] is on record?
Answer: significant increase in GLuc activity in the supernatant

Question: What about the “GLuc activity in the supernatant normalized to cell lysates” value [2] of the same molecule?
Answer: significant increase in GLuc activity in the supernatant

Question: With `Cc1ccc(NC(=O)c2ccc(CN3CCN(C)CC3)cc2)cc1Nc1nccc(-c2cccnc2)n1` [Imatinib] as the molecule, how does the “CAR-T cell induced cell death (GLuc activity)” value [3] read?
Answer: no effect

Question: Which “GLuc activity in the supernatant normalized to cell lysates” value [1] does the source give for `Cc1sc2c(c1C)C(c1ccc(Cl)cc1)=N[C@@H](CC(=O)OC(C)(C)C)c1nnc(C)n1-2` [JQ1] here?
Answer: significant increase in GLuc activity in the supernatant

Question: And the “GLuc activity in the supernatant normalized to cell lysates” value [2]?
Answer: significant increase in GLuc activity in the supernatant

Question: Which “GLuc activity in cell supernatant normalized for GLuc activity in cell lysates” value [4] does the source give for Brentuximab vedotin here?
Answer: significant increase in GLuc activity in cell supernatant

Question: What about the “GLuc activity in the supernatant” value ([4]; not normalized) of the same molecule?
Answer: increase in GLuc activity in the supernatant

Question: And the “GLuc activity in cell supernatant normalized for GLuc activity in cell lysates” value [5]?
Answer: significant increase in GLuc activity in cell supernatant

Question: And the “GLuc activity in the supernatant” value ([5]; not normalized)?
Answer: increase in GLuc activity in the supernatant

Question: And the “GLuc activity in cell supernatant normalized for GLuc activity in cell lysates” value [6]?
Answer: significant increase in GLuc activity in cell supernatant

Question: What about the “GLuc activity in the supernatant” value ([6]; not normalized) of the same molecule?
Answer: increase in GLuc activity in the supernatant

Question: What does the source list for “rituximab: Rituximab monoclonal antibody, obtained from Genentech”?
Answer: luciferase activity ([7]; RAJI cells stably expressing NLuc): Essentially similar results; increase in GLuc activity ([7]; in the presence of PBMC, 4 hours, vs untreated cells): greater than 10 fold; luciferase activity ([7]; in the presence of PBMC, 1 μg/ml and 10 μg/ml): increase in luciferase activity; luciferase activity ([7]; rituximab alone, 1 μg/ml and 10 m/ml, 4 hours, vs untreated cells): increase in luciferase activity

B1: NLuc: NanoLuc, SEQ ID NO: 32 (protein)
chain: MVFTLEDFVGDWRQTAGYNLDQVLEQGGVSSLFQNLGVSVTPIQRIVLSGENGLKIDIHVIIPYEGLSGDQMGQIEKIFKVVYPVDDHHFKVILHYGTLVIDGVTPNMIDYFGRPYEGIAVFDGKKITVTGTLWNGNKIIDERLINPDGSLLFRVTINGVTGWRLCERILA
modifications: NLuc (NanoLuc)
Question: Which results are given for B1?
Answer: time activity is retained in culture medium ([8]; 37° C.): > 15 h; specific activity relative to firefly or Renilla luciferases ([8]; configured for glow-type assays): ~150 fold; time for which luminescence was stable [9]: 24 h

B2: Mluc7: Metrida longa Luc7 M43L/M110L variant, SEQ ID NO: 34 (protein)
chain: MNPTVNNDVNRGKMPGKKLPLEVLIELEANAFKAGCTRGCLICLSKIKCTAKMKQYIPGRCHDYGGDKKTGQAGIVGAIVDIPEISGFKEMEPLEQFIAQVDLCADCTTGCLKGLANVKCSELLKKWLPDRCASFADKIQKEAHNIKGLAGDR
modifications: MLuc7 (Metrida longa Luc7) M43L/M110L variant
Question: For B2, which “time for which luminescence was stable” value [9] is on record?
Answer: 24 h

B3: LucPPe-146-1H2: thermostable luciferase from Photuris pennsylvanica, SEQ ID NO: 51 (protein)
chain: MADKNILYGPEPFYPLEDGTAGEQMFDALSRYAAIPGCIALTNAHTKENVLYEEFLKLSCRLAESFKKYGLKQNDTIAVCSENSLQFFLPVIASLYLGIIVAPVNDKYIERELIHSLGIVKPRIVFCSKNTFQKVLNVKSKLKSIETIIILDLNEDLGGYQCLNNFISQNSDSNLDVKKFKPYSFNRDDQVASIMFSSGTTGLPKGVMLTHKNIVARFSIAKDPTFGNAINPTSAILTVIPFHHGFGMMTTLGYFTCGFRVVLMHTFEEKLFLQSLQDYKVESTLLVPTLMAFLAKSALVEKYDLSHLKEIASGGAPLSKEIGEMVKKRFKLNFVRQGYGLTETTSAVLITPKGDAKPGSTGKIVPLHAVKVVDPTTGKILGPNEPGELYFKGPMIMKGYYNNEEATKAIIDNDGWLRSGDIAYYDNDGHFYIVDRLKSLIKYKGYQVAPAEIEGILLQHPYIVDAGVTGIPDEAAGELPAAGVVVQTGKYLNEQIVQDYVASQVSTAKWLRGGVKFLDEIPKGSTGKIDRKVLRQMLEKHTNG
modifications: LucPPe-146-1H2
Question: For B3, which “time for which luminescence signal was stable in the cell culture medium” value ([9]; supernatants of K562 LucPPe-146-1H2 cells) is on record?
Answer: 4 to 6 h

B4: TLuc16: TurboLuc16, SEQ ID NO: 33 (protein)
chain: MEAEAERGKLPGKKLPLEVLIELEANARKAGCTRGCLICLSKIKCTAKMKKYIPGRCADYGGDKKTGQAGIVGAIVDIPEISGFKEMEPMEQFIAQVDRCADCTTGCLKGLANVKCSDLLKKWLPGRCATFADKIQSEVDNIKGLAGD
modifications: TLuc (TurboLuc16)
Question: For B4, which “time for which luminescence was stable” value [9] is on record?
Answer: 24 h

B5: Renilla Luc: Renilla Luc, SEQ ID NO: 49 (protein)
chain: MASKVYDPEQRKRMITGPQWWARCKQMNVLDSFINYYDSEKHAENAVIFLHGNAASSYLWRHVVPHIEPVARCIIPDLIGMGKSGKSGNGSYRLLDHYKYLTAWFELLNLPKKIIFVGHDWGACLAFHYSYEHQDKIKAIVHAESVVDVIESWDEWPDIEEDIALIKSEEGEKMVLENNFFVETMLPSKIMRKLEPEEFAAYLEPFKEKGEVRRPTLSWPREIPLVKGGKPDVVQIVRNYNAYLRASDDLPKMFIESDPGFFSNAIVEGAKKFPNTEFVKVKGLHFSQEDAPDEMGKYIKSFVERVLKNEQ
modifications: RLuc (Renilla Luc)
Question: For B5, which “luciferase activity after freezing and thawing” value [10] is on record?
Answer: no major change

— US11307205B2, “Non-radioactive cytotoxicity assays” (University of Southern California, priority 2016, dated 2022)
